Test results published in the NIST ThermoML archive (doi:10.1016/j.jct.2016.02.009).
Several values for one entry are separate records, joined by “and”; a condition that tells them apart may be missing. Identical values can stand only once.

Assay: molar heat capacity at constant pressure
Details: 101.33 kPa, Small (less than 1 g) adiabatic calorimetry

CCCCCCCCCCn1cc[n+](C)c1.O=S(=O)([N-]S(=O)(=O)C(F)(F)F)C(F)(F)F
Details | molar heat capacity at constant pressure
239.07 K, Crystal 2 | 641 J/K/mol
240 K, Crystal 2 | 651.3 J/K/mol
240.86 K, Crystal 2 | 665.1 J/K/mol
242.62 K, Crystal 2 | 694.9 J/K/mol
244.33 K, Crystal 2 | 733.6 J/K/mol
245.99 K, Crystal 2 | 789 J/K/mol
247.56 K, Crystal 2 | 885.2 J/K/mol
249 K, Crystal 1 | 1053 J/K/mol
249 K, Crystal 2 | 1053 J/K/mol
249.01 K, Crystal 1 | 1053 J/K/mol
250.61 K, Crystal 1 | 627.9 J/K/mol
252 K, Crystal 1 | 619.2 J/K/mol
252.45 K, Crystal 1 | 620.8 J/K/mol
254.29 K, Crystal 1 | 629.9 J/K/mol
256.12 K, Crystal 1 | 642.5 J/K/mol
257.94 K, Crystal 1 | 658.6 J/K/mol
259.72 K, Crystal 1 | 680.3 J/K/mol
260 K, Crystal 1 | 648.7 J/K/mol
261.48 K, Crystal 1 | 710 J/K/mol
263.19 K, Crystal 1 | 751.8 J/K/mol
263.96 K, Liquid | 730.6 J/K/mol
264.85 K, Crystal 1 | 795.1 J/K/mol
265.87 K, Liquid | 731.7 J/K/mol
266.46 K, Crystal 1 | 822.8 J/K/mol
267.69 K, Liquid | 733 J/K/mol
268.04 K, Crystal 1 | 872.1 J/K/mol
269.51 K, Liquid | 734.3 J/K/mol
269.56 K, Crystal 1 | 972.8 J/K/mol
270 K, Crystal 1 | 687.6 J/K/mol
271.33 K, Liquid | 735.9 J/K/mol
273.16 K, Liquid | 736.9 J/K/mol
274.98 K, Liquid | 738.2 J/K/mol
276.81 K, Liquid | 739.4 J/K/mol
277.33 K, Crystal 1 | 717.5 J/K/mol
277.33 K, Liquid | 739.7 J/K/mol
278.63 K, Liquid | 740.6 J/K/mol
278.84 K, Liquid | 741.1 J/K/mol
280 K, Liquid | 741.6 J/K/mol
280.45 K, Liquid | 741.8 J/K/mol
280.56 K, Liquid | 742.3 J/K/mol
282.28 K, Liquid | 743.2 J/K/mol and 742.8 J/K/mol
284 K, Liquid | 744.4 J/K/mol
284.1 K, Liquid | 744.5 J/K/mol
285.72 K, Liquid | 745.6 J/K/mol
285.92 K, Liquid | 745.7 J/K/mol
287.44 K, Liquid | 747.1 J/K/mol
287.75 K, Liquid | 746.9 J/K/mol
289.16 K, Liquid | 747.9 J/K/mol
289.57 K, Liquid | 748.4 J/K/mol
290 K, Liquid | 748.8 J/K/mol
290.88 K, Liquid | 749.4 J/K/mol
291.4 K, Liquid | 749.8 J/K/mol
292.6 K, Liquid | 750.6 J/K/mol
293.22 K, Liquid | 750.8 J/K/mol
294.32 K, Liquid | 751.9 J/K/mol
295.05 K, Liquid | 752.4 J/K/mol
296.04 K, Liquid | 753.2 J/K/mol
296.87 K, Liquid | 753.9 J/K/mol
297.77 K, Liquid | 754.3 J/K/mol
298.15 K, Liquid | 754.8 J/K/mol
298.69 K, Liquid | 755.1 J/K/mol
299.49 K, Liquid | 755.7 J/K/mol
300 K, Liquid | 756.2 J/K/mol
301.26 K, Liquid | 757.2 J/K/mol
303.08 K, Liquid | 758.7 J/K/mol
304.91 K, Liquid | 759.9 J/K/mol
306.73 K, Liquid | 761.3 J/K/mol
308.56 K, Liquid | 762.8 J/K/mol
310 K, Liquid | 763.8 J/K/mol
310.38 K, Liquid | 764.3 J/K/mol
312.21 K, Liquid | 765.5 J/K/mol
314.03 K, Liquid | 766.8 J/K/mol
315.86 K, Liquid | 768.4 J/K/mol
317.69 K, Liquid | 769.8 J/K/mol
319.51 K, Liquid | 771.1 J/K/mol
320 K, Liquid | 771.5 J/K/mol
321.34 K, Liquid | 772.8 J/K/mol
323.17 K, Liquid | 774.3 J/K/mol
324.99 K, Liquid | 775.7 J/K/mol
326.82 K, Liquid | 777.2 J/K/mol
328.64 K, Liquid | 778.5 J/K/mol
330 K, Liquid | 779.5 J/K/mol
330.47 K, Liquid | 779.9 J/K/mol
332.29 K, Liquid | 781.6 J/K/mol
334.12 K, Liquid | 783.1 J/K/mol
335.95 K, Liquid | 784.6 J/K/mol
337.77 K, Liquid | 786 J/K/mol
339.6 K, Liquid | 787.5 J/K/mol
340 K, Liquid | 787.7 J/K/mol
341.42 K, Liquid | 788.9 J/K/mol
343.25 K, Liquid | 789.9 J/K/mol
345.08 K, Liquid | 791.3 J/K/mol
346.91 K, Liquid | 793.1 J/K/mol
348.74 K, Liquid | 794.8 J/K/mol
350 K, Liquid | 796 J/K/mol
350.57 K, Liquid | 796.5 J/K/mol
352.4 K, Liquid | 797.8 J/K/mol
354.23 K, Liquid | 799.5 J/K/mol
356.06 K, Liquid | 801.2 J/K/mol
357.89 K, Liquid | 802.8 J/K/mol
359.72 K, Liquid | 804.3 J/K/mol
360 K, Liquid | 804.6 J/K/mol
361.55 K, Liquid | 806 J/K/mol
363.37 K, Liquid | 807.7 J/K/mol
365.2 K, Liquid | 809.1 J/K/mol
367.03 K, Liquid | 810.8 J/K/mol
368.86 K, Liquid | 812.7 J/K/mol
370 K, Liquid | 813.4 J/K/mol
